# Reference: patent US20260182575A1, “MOLECULES HAVING PESTICIDAL UTILITY AND INTERMEDIATES AND PROCESSES RELATED THERETO” (CORTEVA AGRISCIENCE LLC, priority 2022, published 2026)
# “And” between values parts separate entries of the source, which are not always exact repeats. Identical values can stand only once.
# Experiments:
# Type in all cases: in vivo
# [1] = tested on: Fall Armyworm (Spodoptera frugiperda, LAPHFR, FAW); experiment: Bioassay 4: fall armyworm, artificial diet, 128-cell tray; details: AI alone
# Summary of the method: (§1)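 Test solutions (0.0000004–0.04% w/v, i.e. 0.00005–5 μg/cm² on diet) were pipetted onto artificial lepidopteran diet and one 2nd-instar larva was placed per cell, 8 replicates per species, held at ~26° C. Live larvae were counted after 5 days; percent control used Abbott's correction against a solvent check.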
# [2] = tested on: Brown Planthopper (Nilaparvata lugens, NILALU, BPH); experiment: Bioassay 6: brown planthopper, sprayed rice seedlings; details: AI alone, AI Rate 0.049 g/ha, 6 days
# Description: At these rates, F1 and the individual active ingredients were tested at a ratio of 1:1. […] F1 and triflumezopyrim were tested at a ratio of 16:1. Test solutions were prepared containing F1, the individual active ingredients, and mixtures of F1 with each of the active ingredients. Test solutions were prepared by weighing 5 mg of each test chemistry (either alone or in combination depending on the treatment) into a 25 mL glass vial. Next, 1 mL of acetone was added to each vial to dissolve the test chemistries, followed by 19 mL of water with 0.125% Tween 20 adjuvant. This test solution represented the 50 g/ha treatment, which was then serially diluted four-fold to create the three lower rates of 12.5, 3.125, and 0.78 g/ha. Triflumezopyrim was prepared in a similar manner, but two additional serial dilutions were conducted to create solutions representing 6 rates of 12.5, 3.125, 0.78, 0.19, 0.049, and 0.012 g/ha. The higher two doses were discarded, and the four lower doses were used for testing. Each rate was replicated four times, and solvent blanks were used as control treatments.
# Five (5) rice seedlings (10-12 days old) planted in 3-inch pots were used as test plants. Rice seedlings were grown in soil and the soil was covered with a 2% agar solution. The test solutions were applied to test plants using a Devries laboratory research sprayer, set to spray at 200 liters per hectare (L/ha) using a TeeJet hollow cone nozzle. Following application, the rice seedlings were dried for 1 hour, after which a single clear plastic tube (2 inches in diameter×12 inches in height) was placed over the seedlings in each pot. The tube was pushed down into the agar to create a sealed test chamber. The agar prevented insects from hiding in the soil and made adult collection and grading easier. Ten to fifteen (10-15) 5th instar BPH nymphs were transferred to each test chamber using a vacuum aspirator. Immediately following BPH infestation, the test chamber was covered with a piece of grade 90 cheesecloth and secured with a rubber band, sealing the test chamber. The test chambers were held at 25° C. for 6 days, after which the total number of live insects was counted in each test chamber. Percent control was measured using Abbott's correction formula (W. S. Abbott, J. Econ. Entomol. 18 (1925), pp. 265-267) as follows:
# where X=No. of live insects on solvent check and Y=No. of live insects in treated chambers. In Table B6 the “Expected % Control” was calculated using the method described in Colby S. R., Weeds, 1967, 15, 20-22. Bioassay 7: Corn Earworm (Helicoverpa zea, HELIZE, “CEW”), Fall Armyworm (Spodoptera frugiperda, LAPHFR, “FAW”), Beet Armyworm (Spodoptera exigua, LAPHEG, “BAW”),and Soybean Looper (Chrysodeixis includens, PSEPIN, “SBL”).
# [3] = tested on: Corn Earworm (Helicoverpa zea, HELIZE, CEW); experiment: Bioassay 4: corn earworm, artificial diet, 128-cell tray; details: AI alone
# Summary of the method: as §1
# [4] = tested on: Soybean Looper (Chrysodeixis includens, PSEPIN, SBL); experiment: Bioassay 4: soybean looper, artificial diet, 128-cell tray; details: AI alone
# Summary of the method: as §1
# [5] = tested on: Sweet Potato Whitefly (Bemisia tabaci, BEMITA, SPW); experiment: Bioassay 2: sweet potato whitefly, cotton seedling foliar spray; details: AI alone
# Description: Stock solutions were prepared with F1 as well as for each of the active ingredients individually. Test solutions were prepared from the stock solutions. Test solutions were prepared containing F1, the individual active ingredients, and mixtures of F1 with each of the active ingredients. The test solutions for F1 and the individual active ingredients were prepared by adding 500 μL of stock solution to a 25 mL glass vial, then adding 500 μL of acetone, followed by the addition of 9 mL water with 0.025% Tween® 20 to create a 0.001% (w/v) solution. The test solutions containing mixtures of F1, and the individual active ingredients were prepared by adding 500 μL of the active ingredient stock solution to a 25 mL glass vial, followed by 500 μL of the F1 stock solution, then by the addition of 9 mL water with 0.025% Tween® 20 to create a test solution containing 0.001% (w/v) F1 and 0.001% (w/v) of the active ingredient. Each test solution was serially diluted to create desired doses of test solutions (0.001% (w/v), 0.0001% (w/v), 0.00001% (w/v), 0.000001% (w/v), 0.0000001% (w/v), and 0.00000001% (w/v)).
# The test solutions were tested against SPW using the following procedure: Cotton seedlings grown in 3-inch pots, pruned so that only one true leaf remained, were used as test substrate. Adult B. tabaci were allowed to colonize the cotton plants and lay eggs for 24 hours after which all adults were removed from the plants using compressed air. Plants were monitored for egg development, and when crawler emergence was underway (>25% emergence based on visual examination using a microscope), the plants were sprayed using the test solutions and methods described above for green peach aphids (GPA). Treated plants were held in a holding room at approximately 25° C. and ambient relative humidity (RH) prior to grading. Evaluation was conducted by counting the number of developed 2-3 instar nymphs per plant under a microscope 7-9 days after treatment. Percent control was measured using Abbott's correction formula (W. S. Abbott, J. Econ. Entomol. 18 (1925), pp. 265-267) as follows:
# where X=No. of live nymphs on solvent check plants and Y=No. of live nymphs on treated plants. In Table B2 the “Expected % Control” was calculated using the method described in Colby S. R., Weeds, 1967, 15, 20-22. Bioassay 3: Western Flower Thrips (Frankliniella occidentalis, FRANOC, “WFT”).
SMILES,Average % Control AI ([1]; 0.000004 wt %) [%],Average % Control AI ([1]; 0.00004 wt %) [%],Average % Control AI [2],Average % Control AI ([3]; 0.000004 wt %) [%],Average % Control AI ([3]; 0.00004 wt %) [%],Average % Control AI ([4]; 0.000004 wt %) [%],Average % Control AI ([4]; 0.00004 wt %) [%],"Average % Control AI ([5]; Wt % AI 0.0001, 7-9 days) [%]","Average % Control AI ([5]; Wt % AI 0.00001, 7-9 days) [%]"
N#CCNC(=O)c1cnccc1C(F)(F)F [Flonicamid],0.0,0.0,5.4% and 1.1%,0.0,0.0,0.0,0.0,0.0,–
O=C1C=C(N(Cc2ccc(Cl)nc2)CC(F)F)CO1 [Flupyradifurone],0.0,0.0,16.3% and 7.6%,0.0,0.0,0.0,0.0,39.2,22.9
